Reference: ChEMBL document CHEMBL1126299, “Synthesis and structure-activity relationships of cephalosporins with C-3' catechol-containing residues” (J Med Chem, 1992)
Values after ≈ are worked out from the molar mass of the structure shown.

Columns and labels:
[1] = tested on: Enterobacter cloacae; experiment: microbe, parasite or virus in culture
Description: Minimum inhibitory concentration in Enterobacter cloacae, P99+ constitutive depressed type 1 lactamase producer

[2] = tested on: Providencia stuartii; experiment: microbe, parasite or virus in culture
Description: Minimum inhibitory concentration in Pseudomonas stuartii, I+442019 inducible type 1 lactamase producer

[3] = tested on: Enterobacter cloacae; experiment: microbe, parasite or virus in culture; remark: listed apart in the source
Description: Minimum inhibitory concentration in Enterobacter cloacae, P99- inducible type 1 lactamase producer

[4] = tested on: Citrobacter freundii; experiment: microbe, parasite or virus in culture
Description: Minimum inhibitory concentration in Citrobacter freundii, I+382010 inducible type 1 lactamase producer

[5] = tested on: Providencia stuartii; experiment: microbe, parasite or virus in culture; remark: listed apart in the source
Description: Minimum inhibitory concentration in Pseudomonas stuartii, DR 442049 constitutive depressed type 1 lactamase producer

[6] = species on record: Homo sapiens; experiment: Compound is evaluated for serum protein binding in human blood (protein binding in marmoset blood); assay type: functional
[7] = tested on: Pseudomonas aeruginosa; experiment: microbe, parasite or virus in culture
Description: Minimum inhibitory concentration in Pseudomonas aeruginosa, 18S inducible type 1 lactamase producer

[8] = The half life period in marmosets; assay type: ADME; details: callithrix, in vivo
[9] = tested on: Pseudomonas aeruginosa; experiment: microbe, parasite or virus in culture; remark: listed apart in the source
Description: Minimum inhibitory concentration in Pseudomonas aeruginosa,799WT parent organism

[10] = The compound was tested for % urinary recovery in marmosets at the dose of 3 mg/kg; assay type: ADME, organism-based; design: dose 3 mg/kg; details: callithrix, urine, read-out: Recovery
[11] = tested on: Enterobacter cloacae; experiment: microbe, parasite or virus in culture; remark: listed apart in the source
Description: Minimum inhibitory concentration in Enterobacter cloacae, I+401029 inducible type 1 lactamase producer

[12] = tested on: Pseudomonas aeruginosa; experiment: microbe, parasite or virus in culture; remark: listed apart in the source
Description: Minimum inhibitory concentration in Pseudomonas aeruginosa,799/61 permeability mutant

[13] = tested on: Pseudomonas aeruginosa; experiment: microbe, parasite or virus in culture; remark: listed apart in the source
Description: Minimum inhibitory concentration in Pseudomonas aeruginosa, 18SH constitutive depressed type 1 lactamase producer

[14] = target: Beta-lactamase TEM (Escherichia coli) (UniProt P62593); experiment: The dissociation constant of compound was tested for beta-Lactamase stability
Beta-lactamase TEM (Escherichia coli), sequence (P62593 whole entry): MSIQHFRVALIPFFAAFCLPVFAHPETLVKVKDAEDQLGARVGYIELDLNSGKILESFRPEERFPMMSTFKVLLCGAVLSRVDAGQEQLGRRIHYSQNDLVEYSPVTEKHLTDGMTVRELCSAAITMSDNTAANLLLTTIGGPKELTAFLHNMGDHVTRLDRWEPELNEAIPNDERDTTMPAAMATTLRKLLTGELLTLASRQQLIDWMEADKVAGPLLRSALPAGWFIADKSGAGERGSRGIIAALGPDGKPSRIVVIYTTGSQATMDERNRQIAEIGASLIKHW

[15] = tested on: Citrobacter freundii; experiment: microbe, parasite or virus in culture; remark: listed apart in the source
Description: Minimum inhibitory concentration in Citrobacter freundii, DR 382031 constitutive depressed type 1

[16] = The compound was evaluated for area under the curve in marmosets; assay type: ADME; details: callithrix, in vivo
[17] = tested on: Enterobacter cloacae; experiment: The compound was tested for minimum inhibitory concentration in Enterobacter cloacae, DR 401108 constitutive depressed type 1 lactamase producer; assay type: functional
[18] = tested on: Pseudomonas aeruginosa; experiment: The compound was tested for minimum inhibitory concentration in Pseudomonas aeruginosa,18S inducible type 1 lactamase producer; assay type: functional
[19] = tested on: Enterobacter cloacae; experiment: The compound was tested for minimum inhibitory concentration in Enterobacter cloacae,I+401029 inducible type 1 lactamase producer; assay type: functional
[20] = tested on: Enterobacter cloacae; experiment: The compound was tested for minimum inhibitory concentration in Enterobacter cloacae,P99- inducible type 1 lactamase producer; assay type: functional
[21] = tested on: Enterobacter cloacae; experiment: microbe, parasite or virus in culture; remark: listed apart in the source
Description: Minimum inhibitory concentration in Enterobacter cloacae, DR 401108 constitutive depressed type 1 lactamase producer

[22] = tested on: Citrobacter freundii; experiment: The compound was tested for minimum inhibitory concentration in Citrobacter freundii, I+382010 inducible type 1 lactamase producer; assay type: functional
[23] = tested on: Providencia stuartii; experiment: (§1) The compound was tested for minimum inhibitory concentration in Pseudomonas stuartii,I+442019 inducible type 1 lactamase producer; assay type: functional
[24] = tested on: Citrobacter freundii; experiment: The compound was tested for minimum inhibitory concentration in Citrobacter freundii, DR 382031 constitutive depressed type 1; assay type: functional
[25] = tested on: Staphylococcus aureus; experiment: microbe, parasite or virus in culture
[26] = tested on: Escherichia coli; experiment: microbe, parasite or virus in culture
Description: In vitro minimum inhibitory concentration against Escherichia coli (DC2 permeability mutant).

[27] = tested on: Staphylococcus aureus; experiment: microbe, parasite or virus in culture; remark: listed apart in the source
[28] = tested on: Escherichia coli; experiment: microbe, parasite or virus in culture; remark: listed apart in the source
Description: In vitro minimum inhibitory concentration against Escherichia coli (DC0 parent organism).

[29] = tested on: Pseudomonas aeruginosa; experiment: microbe, parasite or virus in culture; remark: listed apart in the source
Description: In vitro minimum inhibitory concentration against Pseudomonas aeruginosa (PU21).

[30] = The compound was evaluated for area under the curve; assay type: ADME
[31] = The half life period was tested; assay type: ADME
[32] = tested on: Pseudomonas aeruginosa; experiment: The compound was tested for minimum inhibitory concentration in Pseudomonas aeruginosa,799/61 permeability mutant; assay type: functional
[33] = tested on: Pseudomonas aeruginosa; experiment: The compound was tested for minimum inhibitory concentration in Pseudomonas aeruginosa,799WT parent organism; assay type: functional
[34] = physchem
[35] = tested on: Providencia stuartii; experiment: as §1; assay type: functional, pseudomonas stuartiii
[36] = tested on: Citrobacter freundii; experiment: The compound was tested for minimum inhibitory concentration in Citrobacter freundii, Citrobacter freundii, DR 382031; assay type: functional
[37] = tested on: Staphylococcus aureus; experiment: The compound was tested for minimum inhibitory concentration in Staphylococcus aureus,147N penicillin sensitive Staphylococcus aureus; assay type: functional
[38] = tested on: Staphylococcus aureus; experiment: The compound was tested for minimum inhibitory concentration in Staphylococcus aureus Oxford penicillin sensitive Staphylococcus aureus; assay type: functional
[39] = tested on: Citrobacter freundii; experiment: The compound was tested for minimum inhibitory concentration in Citrobacter freundii,I+382010 inducible type 1 lactamase producer; assay type: functional

| SMILES | MIC [1] [µg/mL] | MIC [2] [µg/mL] | MIC [3] [µg/mL] | MIC [4] [µg/mL] | MIC [5] [µg/mL] | Activity [6] [%] | MIC [7] [µg/mL] | half-life [8] [h] | MIC [9] [µg/mL] | dose excreted [10] [%] | MIC [11] [µg/mL] | MIC [12] [µg/mL] | MIC [13] [µg/mL] | pKa [14] | MIC [15] [µg/mL] | AUC [16] [mg/h/L] | MIC [21] [µg/mL] | MIC [24] [µg/mL] | MIC [26] [µg/mL] | MIC [29] [µg/mL] | other results |
| --- | --- | --- | --- | --- | --- | --- | --- | --- | --- | --- | --- | --- | --- | --- | --- | --- | --- | --- | --- | --- | --- |
| CC(C)(O/N=C(\C(=O)N[C@@H]1C(=O)N2C(C(=O)O)=C(CNC(=O)c3cc(Cl)c(O)c(O)c3Cl)CSC12)c1csc(N)n1)C(=O)O (stereo partly specified) | 4 (≈ 5.8 µM) | 0.06 (≈ 0.087 µM) | 0.03 (≈ 0.0435 µM) | 0.008 (≈ 0.0116 µM) | 1 (≈ 1.45 µM) | 98.7 | 0.008 (≈ 0.0116 µM) | 8.22 | 0.008 (≈ 0.0116 µM) | 16.2 | 0.008 (≈ 0.0116 µM) | 0.008 (≈ 0.0116 µM) | 0.015 (≈ 0.0218 µM) | 6.3 | 2 (≈ 2.9 µM) | 461 |  |  |  |  | MIC [17]: 4 µg/mL (≈ 5.8 µM) |
| CC(C)(O/N=C(\C(=O)N[C@@H]1C(=O)N2C(C(=O)O)=C(CNC(=O)c3ccc4cc(O)c(O)cc4c3)CSC12)c1csc(N)n1)C(=O)O (stereo partly specified) | 16 (≈ 23.9 µM) |  |  |  | 8 (≈ 11.9 µM) |  |  |  | 0.03 (≈ 0.0447 µM) |  |  | 0.008 (≈ 0.0119 µM) | 0.125 (≈ 0.186 µM) |  |  |  | > 128 | 16 (≈ 23.9 µM) |  |  | MIC [18]: 0.008 µg/mL (≈ 0.0119 µM); MIC [19]: 0.125 µg/mL (≈ 0.186 µM); MIC [20]: 0.125 µg/mL (≈ 0.186 µM); MIC [22]: 0.008 µg/mL (≈ 0.0119 µM); MIC [23]: 0.25 µg/mL (≈ 0.373 µM) |
| CCn1cc(C(=O)NCC2=C(C(=O)O)N3C(=O)[C@@H](NC(=O)/C(=N\OC(C)(C)C(=O)O)c4csc(N)n4)C3SC2)c(=O)c2cc(O)c(O)cc21 (stereo partly specified) | 0.25 (≈ 0.349 µM) | 0.25 (≈ 0.349 µM) | 0.06 (≈ 0.0838 µM) | 0.008 (≈ 0.0112 µM) | 8 (≈ 11.2 µM) | 99.2 | 0.008 (≈ 0.0112 µM) | 3.47 | 0.008 (≈ 0.0112 µM) | 13.9 | 0.06 (≈ 0.0838 µM) | 0.008 (≈ 0.0112 µM) | 0.008 (≈ 0.0112 µM) | 7.2 | 0.125 (≈ 0.175 µM) | 238.5 | 1 (≈ 1.4 µM) |  | 0.008 (≈ 0.0112 µM) | 0.06 (≈ 0.0838 µM) | MIC [25]: 16 µg/mL (≈ 22.4 µM); MIC [27]: 16 µg/mL (≈ 22.4 µM); MIC [28]: 0.008 µg/mL (≈ 0.0112 µM) |
| CC(C)(O/N=C(\C(=O)N[C@@H]1C(=O)N2C(C(=O)[O-])=C(C[n+]3ccccc3)CS[C@H]12)c1csc(N)n1)C(=O)O [CEFTAZIDIME] |  | 0.25 (≈ 0.457 µM) |  | 0.125 (≈ 0.229 µM) | 4 (≈ 7.32 µM) |  | 2 (≈ 3.66 µM) |  | 0.125 (≈ 0.229 µM) |  |  | 0.008 (≈ 0.0146 µM) |  |  | 128 (≈ 234 µM) |  |  |  |  |  | AUC [30]: 14 mg/h/L; half-life [31]: 0.7 h |
| CC(C)(O/N=C(\C(=O)N[C@@H]1C(=O)N2C(C(=O)O)=C(CNC(=O)c3cc(O)c4cc(O)c(O)cc4n3)CSC12)c1csc(N)n1)C(=O)O (stereo partly specified) | 16 (≈ 23.3 µM) | 0.008 (≈ 0.0116 µM) | 0.06 (≈ 0.0873 µM) |  | 16 (≈ 23.3 µM) |  | 0.008 (≈ 0.0116 µM) |  |  |  | 0.5 (≈ 0.727 µM) |  | 0.125 (≈ 0.182 µM) |  |  |  | 4 (≈ 5.82 µM) |  |  | 2 (≈ 2.91 µM) | MIC [32]: 0.06 µg/mL (≈ 0.0873 µM); MIC [33]: 0.008 µg/mL (≈ 0.0116 µM) |
| CCn1cc(C(=O)NCC2=C(C(=O)O)N3C(=O)[C@@H](NC(=O)/C(=N\OC(C)(C)C(=O)O)c4csc(N)n4)C3SC2)c(=O)c2c(C#N)c(O)c(O)cc21 (stereo partly specified) | 0.015 (≈ 0.0203 µM) |  | 0.015 (≈ 0.0203 µM) | 0.008 (≈ 0.0108 µM) |  |  | 0.008 (≈ 0.0108 µM) |  |  |  | 0.015 (≈ 0.0203 µM) |  | 0.008 (≈ 0.0108 µM) |  |  |  | 0.5 (≈ 0.675 µM) |  |  |  | MIC [32]: 0.008 µg/mL (≈ 0.0108 µM); MIC [33]: 0.008 µg/mL (≈ 0.0108 µM); pKa [34]: < 5.5; MIC [35]: 0.008 µg/mL (≈ 0.0108 µM); MIC [36]: 0.03 µg/mL (≈ 0.0405 µM) |
| CC(C)(O/N=C(\C(=O)N[C@@H]1C(=O)N2C(C(=O)O)=C(CCNC(=O)c3cc(O)c(O)c(Br)c3)CSC12)c1csc(N)n1)C(=O)O (stereo partly specified) | 2 (≈ 2.8 µM) | 0.25 (≈ 0.35 µM) | 0.03 (≈ 0.042 µM) | 0.008 (≈ 0.0112 µM) | 4 (≈ 5.61 µM) | 99 | 0.008 (≈ 0.0112 µM) |  | 0.008 (≈ 0.0112 µM) | 17.5 | 0.015 (≈ 0.021 µM) | 0.008 (≈ 0.0112 µM) | 0.015 (≈ 0.021 µM) |  |  |  | 8 (≈ 11.2 µM) | 1 (≈ 1.4 µM) | 0.008 (≈ 0.0112 µM) | 0.008 (≈ 0.0112 µM) | MIC [37]: 16 µg/mL (≈ 22.4 µM); MIC [28]: 0.008 µg/mL (≈ 0.0112 µM); MIC [38]: 16 µg/mL (≈ 22.4 µM) |
| CC(C)(O/N=C(\C(=O)N[C@@H]1C(=O)N2C(C(=O)O)=C(CNC(=O)c3ccc(O)c(O)c3)CSC12)c1csc(N)n1)C(=O)O (stereo partly specified) | 16 (≈ 25.8 µM) | 0.25 (≈ 0.403 µM) | 0.125 (≈ 0.201 µM) | 0.03 (≈ 0.0483 µM) | 1 (≈ 1.61 µM) | 96.3 | 0.008 (≈ 0.0129 µM) | 1.25 | 0.008 (≈ 0.0129 µM) | 44.8 | 0.125 (≈ 0.201 µM) | 0.008 (≈ 0.0129 µM) | 0.06 (≈ 0.0967 µM) | 8.5 | 16 (≈ 25.8 µM) | 27.2 | > 128 |  | 0.008 (≈ 0.0129 µM) | 0.015 (≈ 0.0242 µM) | MIC [25]: 8 µg/mL (≈ 12.9 µM); MIC [27]: 16 µg/mL (≈ 25.8 µM); MIC [28]: 0.008 µg/mL (≈ 0.0129 µM) |
| CC(C)(O/N=C(\C(=O)N[C@@H]1C(=O)N2C(C(=O)O)=C(CNC(=O)c3cnc4cc(O)c(O)cc4c3O)CSC12)c1csc(N)n1)C(=O)O (stereo partly specified) | 0.06 (≈ 0.0873 µM) |  | 0.03 (≈ 0.0436 µM) |  | 2 (≈ 2.91 µM) |  | 0.008 (≈ 0.0116 µM) |  |  |  |  |  | 0.008 (≈ 0.0116 µM) |  |  |  | 1 (≈ 1.45 µM) | 0.125 (≈ 0.182 µM) |  |  | MIC [32]: 0.008 µg/mL (≈ 0.0116 µM); MIC [19]: 0.03 µg/mL (≈ 0.0436 µM); MIC [33]: 0.008 µg/mL (≈ 0.0116 µM); MIC [23]: 0.03 µg/mL (≈ 0.0436 µM); MIC [39]: 0.008 µg/mL (≈ 0.0116 µM) |
